Assay results published in patent US4189484A, “Antihypertensive quinazoline derivatives” (priority 1977, dated 1980).

How the values were obtained:
[1] = system: Adrenergic α-receptor; experiment: Adrenergic α-receptor blocking effect (inhibition of hypertensive action of i.v. adrenalin hydrochloride); assay type: in vivo, Wistar strain male rats; settings: relative to prazosin
Protocol: Wistar strain male rats, weighing 250-300 g., were used in this experiment. The rat was anesthetized with pentobarbital sodium and fitted in the right femoral artery with a cannula for determination of blood pressure and in the left femoral vein with another cannula for intravenous injection, the former cannula being connected to an electronic recording system to measure a blood pressure.
Adrenergic α-receptor blocking effect was determined upon whether a hypertensive action with intravenous injection of adrenalin hydrochloride at 0.3 or 1 μg./kg. may be reserved by pretreatment with the test compound.

[2] = system: spontaneously hypertensive rats (SHR); experiment: Antihypertensive effect, oral administration to spontaneously hypertensive rats (mean blood pressure and heart rate); assay type: in vivo, rat; settings: for Change in blood pressure after 3 hrs. from administration: Table 1; for Changes in blood pressure (BP) after oral administration / Changes in heart rate (HR) after oral administration: Table 2, male SHR, n=5, p.o.; for Changes in average blood pressures after administration: Table 3
Protocol: Antihypertensive effect was determined by oral administration of the test compound to spontaneously hypertensive rats (hereinafter referred to as SHR).
These SHR were anesthetized with ether and chronically embedded with a cannula for determination of blood pressure so that one end of the said cannula may be placed in abdominal aorta and the other end thereof may be projected out of dorsal neck. When rats regained their body weight before operation in more than 1 week from operation, the test compound was given. Determination was made by measuring a mean blood pressure and a heart rate under unanesthetized and unrestrained conditions with the cannula connected to an electronic recording system. The test compound was suspended in a 1% tragacanth gum solution to make up a concentration so as to be a volume of 5 ml./kg. and then orally given.

[3] = system: ICR strain male mice; experiment: in vivo; assay type: in vivo; settings: 8 animals per group, 1 week
Protocol: ICR strain male mice, weighing 30-35 g., were deprived of food for 6 hours (water ad libitum) and then used in the experiment. Each group consisted of 8 animals. The test compound was suspended in a 1% tragacanth gum solution so as to be a volume of 40 ml./kg. and orally given. After administration, numbers of deceased animals, changes in body weight and other general states were observed or determined over 1 week.
Survived mice were autopsyed.

## COc1ccc(C=CC(=O)N2CCN(c3nc(N)c4cc(OC)c(OC)cc4n3)CC2)cc1 [Compound No. 8, 2-[4-(4-Methoxycinnamoyl)-piperazin-1-yl]-4-amino-6,7-dimethoxyquinazoline]
[1]
  α-receptor blocking action as compared with the action of prazosin: 1/100
[2]; SHR, p.o., 10 mg./kg., 3 hrs.
  Change in blood pressure after 3 hrs. from administration: -25 mmHg

## CCOc1ccc(C=CC(=O)N2CCN(c3nc(N)c4cc(OC)c(OC)cc4n3)CC2)cc1 [Compound No. 10, 2-[4-(4-Ethoxycinnamoyl)-piperazine-1-yl]-4-amino-6,7-dimethoxyquinazoline]
[1]
  α-receptor blocking action as compared with the action of prazosin: 1/100
[2]; SHR, p.o., 1 mg./kg., 3 hrs.
  Change in blood pressure after 3 hrs. from administration: -19 mmHg
[2]; SHR, p.o., 10 mg./kg., 3 hrs.
  Change in blood pressure after 3 hrs. from administration: -53 mmHg

## COc1cc2nc(N3CCN(C(=O)C=Cc4ccc5c(c4)OCO5)CC3)nc(N)c2cc1OC [Compound No. 16, 2-[4-(3,4-Methylenedioxycinnamoyl)-piperazin-1-yl]-4-amino-6,7-dimethoxyquinazoline]
[1]
  α-receptor blocking action as compared with the action of prazosin: 1/100
[2]; SHR, p.o., 10 mg./kg., 3 hrs.
  Change in blood pressure after 3 hrs. from administration: -13 mmHg

## COc1cc2nc(N3CCN(C(=O)c4ccco4)CC3)nc(N)c2cc1OC [Prazosin, reference compound]
[3]; p.o., 1,250 mg./kg.
  No. of deceased animal: 0
[3]; p.o., 2,500 mg./kg.
  No. of deceased animal: 0
[3]; p.o., 5,000 mg./kg.
  No. of deceased animal: 0
[2]; SHR, p.o.
  time of maximum antihypertensive effect from oral administration: 1 h
[2]; SHR, p.o., in words
  antihypertensive effect, compound compared with prazosin: approximately equal antihypertensive effect to that of the present quinazoline compound after 3 hours
[2]; 0.3 mg./kg., 1 hr.
  Changes in blood pressure (BP) after oral administration: -34±5.6 mm.Hg.
  Changes in heart rate (HR) after oral administration: 6.3±3.3 no/min.
[2]; 0.3 mg./kg., 3 hrs.
  Changes in blood pressure (BP) after oral administration: -25±3.5 mm.Hg.
  Changes in heart rate (HR) after oral administration: 5.3±4.6 no/min.
[2]; 0.3 mg./kg., 6 hrs.
  Changes in blood pressure (BP) after oral administration: -27±4.4 mm.Hg.
  Changes in heart rate (HR) after oral administration: 3.2±3.0 no/min.
[2]; 0.3 mg./kg., 24 hrs.
  Changes in blood pressure (BP) after oral administration: -1±4.3 mm.Hg.
  Changes in heart rate (HR) after oral administration: 4.3±4.9 no/min.
[2]; 1 mg./kg., 1 hr.
  Changes in blood pressure (BP) after oral administration: -46±2.9 mm.Hg.
  Changes in heart rate (HR) after oral administration: 7.0±4.4 no/min.
[2]; 1 mg./kg., 3 hrs.
  Changes in heart rate (HR) after oral administration: 1.5±2.8 no/min.
[2]; 1 mg./kg., 6 hrs.
  Changes in blood pressure (BP) after oral administration: -31±2.9 mm.Hg.
  Changes in heart rate (HR) after oral administration: -9.8±6.1 no/min.
[2]; 1 mg./kg., 24 hrs.
  Changes in blood pressure (BP) after oral administration: -6±1.9 mm.Hg.
  Changes in heart rate (HR) after oral administration: -3.9±2.8 no/min.
[2]; 3 mg./kg., 1 hr.
  Changes in blood pressure (BP) after oral administration: -50±6.5 mm.Hg.
  Changes in heart rate (HR) after oral administration: 12.7±7.8 no/min.
[2]; 3 mg./kg., 3 hrs.
  Changes in blood pressure (BP) after oral administration: -31±5.8 mm.Hg.
  Changes in heart rate (HR) after oral administration: 17.8±7.7 no/min.
[2]; 3 mg./kg., 6 hrs.
  Changes in blood pressure (BP) after oral administration: -34±6.2 mm.Hg.
  Changes in heart rate (HR) after oral administration: 9.4±8.3 no/min.
[2]; 3 mg./kg., 24 hrs.
  Changes in blood pressure (BP) after oral administration: -3± 5.8 mm.Hg.
  Changes in heart rate (HR) after oral administration: 26.8±8.3 no/min.
[2]; SHR, p.o., 1 mg./kg., 1 hr.
  Changes in average blood pressures after administration: -46 mmHg
[2]; SHR, p.o., 1 mg./kg., 3 hrs.
  Changes in average blood pressures after administration: -37 mmHg
[2]; SHR, p.o., 1 mg./kg., 6 hrs.
  Changes in average blood pressures after administration: -31 mmHg
[2]; SHR, p.o., 1 mg./kg., 24 hrs.
  Changes in average blood pressures after administration: -6 mmHg
[2]; SHR, p.o., 3 mg./kg., 1 hr.
  Changes in average blood pressures after administration: -50 mmHg
[2]; SHR, p.o., 3 mg./kg., 3 hrs.
  Changes in average blood pressures after administration: -31 mmHg
[2]; SHR, p.o., 3 mg./kg., 6 hrs.
  Changes in average blood pressures after administration: -34 mmHg
[2]; SHR, p.o., 3 mg./kg., 24 hrs.
  Changes in average blood pressures after administration: -3 mmHg

## COc1cc2nc(N3CCN(C(=O)C=Cc4ccccn4)CC3)nc(N)c2cc1OC [compound 43, 2-{4-[3-(Pyridin-2-yl)-acryloyl]-piperazin-1-yl}-4-amino-6,7-dimethoxyquinazoline]
[2]; SHR, p.o., 3 mg./kg., 1 hr.
  Changes in average blood pressures after administration: -40 mmHg
[2]; SHR, p.o., 3 mg./kg., 3 hrs.
  Changes in average blood pressures after administration: -22 mmHg
[2]; SHR, p.o., 3 mg./kg., 6 hrs.
  Changes in average blood pressures after administration: -30 mmHg
[2]; SHR, p.o., 3 mg./kg., 24 hrs.
  Changes in average blood pressures after administration: 8 mmHg
[2]; SHR, p.o., 10 mg./kg., 1 hr.
  Changes in average blood pressures after administration: -23 mmHg
[2]; SHR, p.o., 10 mg./kg., 3 hrs.
  Changes in average blood pressures after administration: -22 mmHg
[2]; SHR, p.o., 10 mg./kg., 6 hrs.
  Changes in average blood pressures after administration: -18 mmHg
[2]; SHR, p.o., 10 mg./kg., 24 hrs.
  Changes in average blood pressures after administration: -3 mmHg

## COc1cc2nc(N3CCN(C(=O)C=Cc4cccnc4)CC3)nc(N)c2cc1OC [compound 44, 2-{4-[3-(Pyridin-3-yl)-acryloyl]-piperazin-1-yl}-4-amino-6,7-dimethoxyquinazoline]
[2]; SHR, p.o., 3 mg./kg., 1 hr.
  Changes in average blood pressures after administration: -28 mmHg
[2]; SHR, p.o., 3 mg./kg., 3 hrs.
  Changes in average blood pressures after administration: -15 mmHg
[2]; SHR, p.o., 3 mg./kg., 6 hrs.
  Changes in average blood pressures after administration: -25 mmHg
[2]; SHR, p.o., 3 mg./kg., 24 hrs.
  Changes in average blood pressures after administration: 3 mmHg

## COc1cc2nc(N3CCN(C(=O)C=Cc4ccncc4)CC3)nc(N)c2cc1OC [compound 45, 2-{4-[3-(Pyridin-4-yl)-acryloyl]-piperazin-1-yl}-4-amino-6,7-dimethoxyquinazoline]
[2]; SHR, p.o., 3 mg./kg., 1 hr.
  Changes in average blood pressures after administration: -9 mmHg
[2]; SHR, p.o., 3 mg./kg., 3 hrs.
  Changes in average blood pressures after administration: -5 mmHg
[2]; SHR, p.o., 3 mg./kg., 6 hrs.
  Changes in average blood pressures after administration: -12 mmHg
[2]; SHR, p.o., 3 mg./kg., 24 hrs.
  Changes in average blood pressures after administration: 0 mmHg

## COc1cc2nc(N3CCCN(C(=O)C=Cc4ccco4)CC3)nc(N)c2cc1OC [compound 46, 2-{4-[3-(Furan-2-yl)-acryloyl]-homopiperazin-1-yl}-4-amino-6,7-dimethoxyquinazoline]
[2]; SHR, p.o., 3 mg./kg., 1 hr.
  Changes in average blood pressures after administration: -20 mmHg
[2]; SHR, p.o., 3 mg./kg., 3 hrs.
  Changes in average blood pressures after administration: -10 mmHg
[2]; SHR, p.o., 3 mg./kg., 6 hrs.
  Changes in average blood pressures after administration: -12 mmHg
[2]; SHR, p.o., 3 mg./kg., 24 hrs.
  Changes in average blood pressures after administration: -8 mmHg

## COc1cc2nc(N3CCCN(C(=O)C=Cc4cccs4)CC3)nc(N)c2cc1OC [compound 47, 2-{4-[3-(Thiophen-2-yl)-acryloyl]-homopiperazin-1-yl}-4-amino-6,7-dimethoxyquinazoline]
[2]; SHR, p.o., 3 mg./kg., 1 hr.
  Changes in average blood pressures after administration: -22 mmHg
[2]; SHR, p.o., 3 mg./kg., 3 hrs.
  Changes in average blood pressures after administration: -13 mmHg
[2]; SHR, p.o., 3 mg./kg., 6 hrs.
  Changes in average blood pressures after administration: -17 mmHg
[2]; SHR, p.o., 3 mg./kg., 24 hrs.
  Changes in average blood pressures after administration: 2 mmHg

## COc1cc2nc(N3CCCN(C(=O)C=Cc4cccnc4)CC3)nc(N)c2cc1OC [compound 48, 2-{4-[3-(Pyridin-3-yl)-acryloyl]-homopiperazin-1-yl}-4-amino-6,7-dimethoxyquinazoline]
[2]; SHR, p.o., 3 mg./kg., 1 hr.
  Changes in average blood pressures after administration: -9 mmHg
[2]; SHR, p.o., 3 mg./kg., 3 hrs.
  Changes in average blood pressures after administration: 0 mmHg
[2]; SHR, p.o., 3 mg./kg., 6 hrs.
  Changes in average blood pressures after administration: 0 mmHg
[2]; SHR, p.o., 3 mg./kg., 24 hrs.
  Changes in average blood pressures after administration: 2 mmHg
